Assay results taken from patent US20140011799A1 (Bristol-Myers Squibb Company, priority 2012, published 2014).
pIC50: −log10 of the molar value.

Experiments:
Endothelial lipase (EL) = target: T1, Endothelial lipase (EL) (Homo sapiens, UniProt Q9Y5X9); assay: Endothelial lipase (EL) enzymatic assay, fluorescent substrate A10070 in DMPG vesicles; assay type: biochemical; conditions: EL from conditioned media of HT-1080 cells; compound preincubated 30 min at 37° C; read-out: EL IC50
T1 construct: HT-1080 cells that were transformed using RAGE technology (Athersys) to overexpress endogenous EL; endogenous in cells; conditioned medium used
T1 sequence (Q9Y5X9 21-500): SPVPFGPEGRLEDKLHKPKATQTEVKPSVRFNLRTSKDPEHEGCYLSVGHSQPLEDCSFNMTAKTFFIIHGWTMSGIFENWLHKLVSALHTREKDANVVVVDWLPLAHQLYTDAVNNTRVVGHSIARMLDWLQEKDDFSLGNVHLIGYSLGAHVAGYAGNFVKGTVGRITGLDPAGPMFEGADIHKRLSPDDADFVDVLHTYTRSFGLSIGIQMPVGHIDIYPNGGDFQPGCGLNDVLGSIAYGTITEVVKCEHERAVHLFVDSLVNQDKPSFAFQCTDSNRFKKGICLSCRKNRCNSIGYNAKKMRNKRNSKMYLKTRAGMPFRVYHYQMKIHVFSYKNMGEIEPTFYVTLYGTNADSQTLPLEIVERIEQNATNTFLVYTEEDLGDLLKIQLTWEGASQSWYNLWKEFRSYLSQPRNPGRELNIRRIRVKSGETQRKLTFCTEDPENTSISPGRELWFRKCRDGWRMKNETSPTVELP
Outline: (§1)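 Compounds were preincubated with enzyme for 30 min at 37° C before FRET-substrate vesicles (A10070 in DMPG, 0.11 mole fraction) were added. Reaction rates were obtained from the 300–900 sec slope of fluorescence at 490/530 nm.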

hepatic lipase (HL) = target: T2, hepatic lipase (HL) (Homo sapiens, UniProt P11150); assay: Hepatic lipase (HL) enzymatic assay, fluorescent substrate A10070 in DMPG vesicles; assay type: biochemical; conditions: HL partially purified from conditioned media of COS cells; compound preincubated 30 min at 37° C; read-out: HL IC50
T2 construct: made in house; host or cells: COS cells (conditioned medium, partially purified)
T2 sequence (P11150 23-499): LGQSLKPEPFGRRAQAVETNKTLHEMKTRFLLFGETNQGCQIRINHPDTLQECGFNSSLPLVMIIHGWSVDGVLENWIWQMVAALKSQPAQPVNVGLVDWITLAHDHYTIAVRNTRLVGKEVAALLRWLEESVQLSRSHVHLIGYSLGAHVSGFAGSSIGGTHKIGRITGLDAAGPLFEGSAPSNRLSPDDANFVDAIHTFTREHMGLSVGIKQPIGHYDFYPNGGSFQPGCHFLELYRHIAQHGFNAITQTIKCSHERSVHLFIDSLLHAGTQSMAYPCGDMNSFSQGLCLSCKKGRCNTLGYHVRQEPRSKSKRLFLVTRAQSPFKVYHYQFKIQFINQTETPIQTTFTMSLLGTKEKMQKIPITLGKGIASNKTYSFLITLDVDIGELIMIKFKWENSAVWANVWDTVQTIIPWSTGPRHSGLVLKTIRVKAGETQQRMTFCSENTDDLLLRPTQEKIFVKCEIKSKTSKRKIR
Outline: as §1

Structure (SMILES)	pIC50 (Endothelial lipase (EL))	pIC50 (hepatic lipase (HL))
CS(=O)(=O)C(c1nnc(CC2SC(=O)NC2=O)o1)c1nc2cc(C(F)(F)F)c(-c3ccccc3)cc2s1 (centres unmarked) [Example 164, 5-((5-((methylsulfonyl)(6-phenyl-5-(trifluoromethyl)-1,3-benzothiazol-2-yl)methyl)-1,3,4-oxadiazol-2-yl)methyl)-1,3-thiazolidine-2,4-dione]	> 8.00	7.66
CC(C)Cn1cc(-c2cc(F)c3nc(C(c4nnc(CC5SC(=O)NC5=O)o4)S(=O)(=O)Cc4ccccc4)sc3c2)cn1 (centres unmarked) [Example 165, 5-((5-((benzylsulfonyl)(4-fluoro-6-(1-isobutyl-1H-pyrazol-4-yl)-1,3-benzothiazol-2-yl)methyl)-1,3,4-oxadiazol-2-yl)methyl)-1,3-thiazolidine-2,4-dione]	> 8.00	7.62
Cn1cc(-c2cc3sc(C(c4nnc(CNC(=O)OC(C)(C)C)o4)S(=O)(=O)Cc4ccccc4)nc3cc2F)cn1 (centres unmarked) [Example 166, tert butyl ((5-((benzylsulfonyl)(5-fluoro-6-(1-methyl-1H-pyrazol-4-yl)-1,3-benzothiazol-2-yl)methyl)-1,3,4-oxadiazol-2-yl)methyl)carbamate]	7.64	7.49
O=C(NCCS(=O)(=O)C(c1nnc(CC2SC(=O)NC2=O)o1)c1nc2cc(F)c(-c3ccccc3)cc2s1)OCc1ccccc1 (centres unmarked) [Example 167, benzyl (2-(((5-((2,4-dioxo-1,3-thiazolidin-5-yl)methyl)-1,3,4-oxadiazol-2-yl)(5-fluoro-6-phenyl-1,3-benzothiazol-2-yl)methyl)sulfonyl)ethyl)carbamate]	> 8.00	> 8.00
CS(=O)(=O)C(c1nnc(C[C@@H]2NS(=O)(=O)NC2=O)o1)c1nc2cc(F)c(-c3ccccc3)cc2s1 (stereo partly drawn) [Example 168, (4S)-4-((5-((5-fluoro-6-phenyl-1,3-benzothiazol-2-yl)(methylsulfonyl)methyl)-1,3,4-oxadiazol-2-yl)methyl)-1,2,5-thiadiazolidin-3-one 1,1-dioxide]	> 8.00	7.72
CC(=O)NS(=O)(=O)Cc1nnc(C(c2nc3ccc(-c4ccccc4)cc3s2)S(C)(=O)=O)o1 (centres unmarked) [Example 169, N-(((5-((Methylsulfonyl)(6-phenyl-1,3-benzothiazol-2-yl)methyl)-1,3,4-oxadiazol-2-yl)methyl)sulfonyl)acetamide]	> 8.00	6.80
CC(O)CS(=O)(=O)C(c1nnc(CNS(N)(=O)=O)o1)c1nc2ccc(-c3ccccc3)cc2s1 (centres unmarked) [Example 170, N-((5-(((2-Hydroxypropyl)sulfonyl)(6-phenyl-1,3-benzothiazol-2-yl)methyl)-1,3,4-oxadiazol-2-yl)methyl)sulfamide]	> 8.00	> 8.00
Cn1cc(-c2ccc3nc(C(c4nnc(CNS(N)(=O)=O)o4)S(=O)(=O)CCC(=O)O)sc3c2)cn1 (centres unmarked) [Example 174, 3-(((6-(1-Methyl-1H-pyrazol-4-yl)-1,3-benzothiazol-2-yl)(5-((sulfamoylamino)methyl)-1,3,4-oxadiazol-2-yl)methyl)sulfonyl)propanoic acid]	7.96	6.91
O=C(Cc1nnc(C(c2nc3ccc(-c4ccc(C(=O)N5CCOCC5)cc4)cc3s2)S(=O)(=O)Cc2ccccc2)o1)NCC1(O)CCC1 (centres unmarked) [Example 178, 2-(5-((benzylsulfonyl)(6-(4-(4-morpholinylcarbonyl)phenyl)-1,3-benzothiazol-2-yl)methyl)-1,3,4-oxadiazol-2-yl)-N-((1-hydroxycyclobutyl)methyl) acetamide]	> 8.00	6.56
O=C(Cc1nnc(C(c2nc3ccc(-c4ccc(C(=O)N5CCOCC5)cc4)cc3s2)S(=O)(=O)Cc2ccccc2)o1)NC1CCCC1 (centres unmarked) [Example 180, 2-(5-((benzylsulfonyl)(6-(4-(4-morpholinylcarbonyl)phenyl)-1,3-benzothiazol-2-yl)methyl)-1,3,4-oxadiazol-2-yl)-N-cyclopentylacetamide]	> 8.00	7.36
CS(=O)(=O)C(c1nnc(C[C@@H]2NS(=O)(=O)N(C3CC3)C2=O)o1)c1nc2ccc(-c3ccccc3)cc2s1 (some centres unmarked) [Example 181]	6.89	7.25
CS(=O)(=O)C(c1nnc(CC2SC(=O)NC2=O)o1)c1nc2ccc(-c3cnc(O)nc3)cc2s1 (centres unmarked) [Example 182, 5-((5-((Methylsulfonyl)(6-(2-oxo-1,2-dihydro-5-pyrimidinyl)-1,3-benzothiazol-2-yl)methyl)-1,3,4-oxadiazol-2-yl)methyl)-1,3-thiazolidine-2,4-dione]	> 8.00	7.08

The remaining lines, values ahead:

pIC50 (Endothelial lipase (EL))	pIC50 (hepatic lipase (HL))	Structure (SMILES)
6.62	7.49	CS(=O)(=O)NCc1nnc(C(c2nc3ccc(-c4ccc(F)nc4)cc3s2)S(C)(=O)=O)o1 (centres unmarked) [Example 172, N-((5-((6-(6-Fluoro-3-pyridinyl)-1,3-benzothiazol-2-yl)(methylsulfonyl)methyl)-1,3,4-oxadiazol-2-yl)methyl)methanesulfonamide]
7.46	7.24	CS(=O)(=O)NCc1nnc(C(c2nc3ccc(-c4ccc(C(=O)N5CCOCC5)cc4)cc3s2)S(C)(=O)=O)o1 (centres unmarked) [Example 173, N-((5-((Methylsulfonyl)(6-(4-(4-morpholinylcarbonyl)phenyl)-1,3-benzothiazol-2-yl)methyl)-1,3,4-oxadiazol-2-yl)methyl)methanesulfonamide]
7.92	7.05	CCCOCCCNC(=O)Cc1nnc(C(c2nc3ccc(-c4ccc(C(=O)N5CCOCC5)cc4)cc3s2)S(C)(=O)=O)o1 (centres unmarked) [Example 175, 2-(5-((Methylsulfonyl)(6-(4-(4-morpholinylcarbonyl)phenyl)-1,3-benzothiazol-2-yl)methyl)-1,3,4-oxadiazol-2-yl)-N-(3-propoxypropyl)acetamide]
8.00	6.33	CC(O)CCNC(=O)Cc1nnc(C(c2nc3ccc(-c4ccc(C(=O)N5CCOCC5)cc4)cc3s2)S(C)(=O)=O)o1 (centres unmarked) [Example 176, N-(3-hydroxybutyl)-2-(5-((methylsulfonyl)(6-(4-(4-morpholinylcarbonyl)phenyl)-1,3-benzothiazol-2-yl)methyl)-1,3,4-oxadiazol-2-yl)acetamide]
7.85	6.23	CC(O)CCNC(=O)Cc1nnc(C(c2nc3ccc(-c4ccc(C(=O)N5CCOCC5)cc4)cc3s2)S(=O)(=O)Cc2ccccc2)o1 (centres unmarked) [Example 177, 2-(5-((benzylsulfonyl)(6-(4-(4-morpholinylcarbonyl)phenyl)-1,3-benzothiazol-2-yl)methyl)-1,3,4-oxadiazol-2-yl)-N-(3-hydroxybutyl) acetamide]
> 8.00	6.29	CC(O)CNC(=O)Cc1nnc(C(c2nc3ccc(-c4ccc(C(=O)N5CCOCC5)cc4)cc3s2)S(=O)(=O)Cc2ccccc2)o1 (centres unmarked) [Example 179, 2-(5-((benzylsulfonyl)(6-(4-(4-morpholinylcarbonyl)phenyl)-1,3-benzothiazol-2-yl)methyl)-1,3,4-oxadiazol-2-yl)-N-(2-hydroxypropyl) acetamide]
7.85	6.75	NCCS(=O)(=O)C(c1nnc(CNS(N)(=O)=O)o1)c1nc2ccc(-c3ccc(C(=O)N4CCOCC4)cc3)cc2s1 (centres unmarked) [Example 183, N-{[5-([(2-Aminoethyl)sulfonyl]{6-[4-(4-morpholinylcarbonyl)phenyl]-1,3-benzothiazol-2-yl}methyl)-1,3,4-oxadiazol-2-yl]methyl}sulfuric diamide]
